One data set concerns BamL. As to conditions: cited from earlier work.
A short description of a further data set: aqueous solubility. The class given is physicochemical. As to conditions: in words.
For another data set, the system named is MRSA (S. aureus NRS384). As to the kind of experiment: cell density after 12 h treatment, MRSA. Type of data set: cell-based, Staphylococcus aureus. As to conditions: 24 μM, duplicate, #P<0.01 vs DMSO-treated MRSA.
In the next data set the test system is Escherichia coli DH5a. Type of data set: cell-based.
The subject of data set [1] is Bacillus anthracis Sterne. As to conditions: microbroth dilution method, ref [6], [10]; cited from earlier work. In general terms: Broth dilution looks for growth in wells or tubes with falling amounts of substance.
Data set [2] concerns other members of the genus Bacillus. As to conditions: cited from earlier work.
Data set [3] deals with other representative members of the genus Bacillus. The class given is cell-based.
The test system of data set [4] is B. anthracis Sterne. Type of data set: cell-based, Bacillus anthracis. As to conditions: 4 μM, 30 min, mid-exponential phase cells, 22 °C.
The test system of a further data set is Bacillus subtilis 168. Type of data set: cell-based.
Data set [5] concerns B. anthracis Sterne. Type of data set: cell-based, Bacillus anthracis. As to conditions: 24 μM, 12 h treatment, duplicate, *P<0.01 vs DMSO-treated.

We go through four compounds from article PMC4573583 (ACS chemical biology, 2015).

Entries after “also recorded” stand apart in the source; their conditions may differ.

In the case of `NC(=O)[C@@H](N)CCCN=C(N)N` [Arg amide], the acceptance as substrate result in the data set on BamL is “poorer substrate that is turned over by BamL but only under single-turnover conditions; also recorded: only so under near-single turnover conditions”.

As for `N=C(N)NCCC[C@H](N)C(=O)O` [Arg], the acceptance as substrate result in the data set on BamL is given as “not accepted as a substrate”.

Regarding RCTCTT [Arg-Az5], the aqueous solubility result in the data set “aqueous solubility” is on record as “moderate solubility”.

As for plantazolicin [PZN], in the data set with MRSA (S. aureus NRS384), the “antibiotic activity (cell density, 595 nm)” value was “not PZN displays antibiotic activity against MRSA”. The “minimum inhibitory concentration (MIC)” value with Escherichia coli DH5a and in the data set on Bacillus subtilis 168 was greater than 48 µM each time. In data set [1], the “susceptibility to purified PZN” value is recorded as “the only organism susceptible to the action of purified PZN to date has been Bacillus anthracis”. Moreover, the growth inhibitory activity entry in data set [2] was “weak growth inhibitory activity”. In data set [3], the “activity against other Bacillus (microbroth dilution)” value was greater than 48 µM. Also, the cell lysis result in the data set on B. anthracis Sterne [4] is reported as “induces major cell lysis above the MIC; also recorded: shows cell lysis”. In the data set with B. anthracis Sterne [5], the “bactericidal effect (cell density, 595 nm)” value is “bactericidal”.
